Laboratory results reported in patent publication US4317768A, “Dihydropyridine derivatives as stabilizers for vinyl chloride polymers” (priority 1977, dated 1982).
Entries after “also recorded” stand apart in the source; their conditions may differ.

What was measured:
[1] = Colour of the resin after each passage in a blower-extruder; details: blower-extruder
Procedure: (2) Examination of the colour of the resin after each passage (3 in all) in a blower-extruder, the mould being a 250 ml cylindrical flask.
Four resins where tested, the first containing 0.2% of 2-phenyl-indole and the others 0.2%, 0.03% and 0.015% of compound 1 respectively.

[2] = Comparison with stabilizer G1, rigid co-polymer, 0.5 part, 185° C.
Excerpt: (b) Comparison with stabilizer G1
Stabilizer G1 is a mixture of 1,4-butanediol-β-aminocrotonate and of β-aminocrotonate of alcohols containing from 16 to 18 carbon atoms.

[3] = Comparison with stabilizer G1, rigid co-polymer (12.5 to 13.5% of acetate), 0.5 part, 185° C.
Excerpt: Another comparison was made with the following rigid co-polymer: […]

[4] = Antioxidant power on a polyvinyl chloride resin, GARDNER method, 185° C.
Procedure: (§1) By direct comparison, on a polyvinyl chloride resin, of the antioxidant power of Compound 1 of the invention and that of an antioxidant known as one of the most valuable and frequently used in polyvinyl chloride, namely 2,6-diterbutyl-4-methyl-phenol.
(§2) The antioxidant power of Compound 1 was compared to that of 2,6-diterbutyl-4-methyl-phenol (Compound 2) by using the following resin:
The study was carried out according to the GARDNER method, the samples being removed from an oven at 185° C. every 10 minutes over a period of 80 minutes.
The signs + and - have the same meanings as in the previous table and > 2 means that the coloration lies between 2 and 2+.

[5] = Antioxidant power on a polyvinyl chloride resin, Metrastat oven, 210° C.
Procedure: as §1, §2
The same trials were carried out in a Metrastat oven at 210° C.

[6] = Static thermostability (GARDNER method), rigid PVC sheets, 185° C., equimolecular quantities; details: 1.55×10^-3 mol
Procedure: This study was carried out according to the GARDNER method, described in British Pat. No. 1,489,685.
The reference substance was 2-phenyl-indole, a well-known and widely used stabilizer.
The stabilizer (dihydropyridine or 2-phenyl-indole) and the other usual ingredients were mixed with powdered vinyl resins and the mixtures were calendered at a temperature of 160° C. to give rigid sheets.
The sheets were then heated in a thermostated oven (185° C. or 210° C.) for different intervals of time until incipient carbonization.
The coloration of the samples was compared to a standard scale of coloration, known as the GARDNER scale and was expressed in terms of the reference figures of the GARDNER scale.
This study was carried out with the following resin:
Polyvinyl chloride resin
SL 2016 is a solution of zinc-2-ethyl-hexanoate in a mixture of hydrocarbons boiling between 158° C. and 184° C.
Finally, a trail was performed at 185° C., with resins containing equimolecular quantities of the dihydropyridines or of 2-phenyl-indole, namely 1.55×10^-3 mol. In this case too, the samples were removed from the oven every 6 minutes over a period of 24 minutes and then every 3 minutes until the 42nd minute (or until carbonization).

[7] = Comparison with 1,4-butanediol-β-aminocrotonate and methyl-β-aminocrotonate, rigid co-polymer, 185° C.; details: 0.5 part
Procedure: (a) Comparison with 1,4-butanediol-β-aminocrotonate and with methyl-β-aminocrotonate.
The following rigid co-polymer was prepared:
The sheets were heated in a ventilated oven at 185° C. and the following results were obtained: […]

Structure (SMILES): C=CCOC(=O)C1=C(C)NC(C)=C(C(=O)OCC=C)C1 [Compound 1, 2,6-Dimethyl-3,5-dicarboallyloxy-1,4-dihydropyridine]
- stability of colour compared to 2-phenyl-indole, in words [1]: markedly superior; also recorded: at all times superior to 2-phenyl-indole used at a concentration of 0.2%
- stability of colour compared to 2-phenyl-indole, in words ([1]; listed as compound 1): excellent behaviour
- coloration, GARDNER scale ([2]; 0 min): 1
- coloration, GARDNER scale ([2]; 2 min): 1
- coloration, GARDNER scale ([2]; 4 min): 2
- coloration, GARDNER scale ([2]; 6 min): 6
- coloration, GARDNER scale ([2]; 8 min): 10
- coloration, GARDNER scale ([2]; 10 min): 13
- coloration, GARDNER scale ([2]; 12 min): 17
- coloration, GARDNER scale ([3]; 0 min): 1
- coloration, GARDNER scale ([3]; 2 min): 1
- coloration, GARDNER scale ([3]; 4 min): 2
- coloration, GARDNER scale ([3]; 6 min): 3
- coloration, GARDNER scale ([3]; 10 min): 12
- coloration, GARDNER scale ([3]; 12 min): 18
- coloration, GARDNER scale ([3]; column without printed time, between 6 and 10 min): 7
- coloration, GARDNER scale ([4]; 0.05 part, 0 min): 1
- coloration, GARDNER scale ([4]; 0.05 part, 10 min): 1
- coloration, GARDNER scale ([4]; 0.05 part, 60 min): 7
- coloration, GARDNER scale ([4]; 0.05 part, 70 min): 8
- coloration, GARDNER scale ([4]; 0.1 part, 0 min): 1
- coloration, GARDNER scale ([4]; 0.1 part, 10 min): 1
- coloration, GARDNER scale ([4]; 0.1 part, 30 min): < 2
- coloration, GARDNER scale ([4]; 0.1 part, 60 min): 7
- coloration, GARDNER scale ([4]; 0.1 part, 70 min): 7
- coloration, GARDNER scale ([4]; 0.2 part, 0 min): 1
- coloration, GARDNER scale ([4]; 0.2 part, 10 min): 1
- coloration, GARDNER scale ([4]; 0.2 part, 20 min): 1
- coloration, GARDNER scale ([4]; 0.2 part, 40 min): 2
- coloration, GARDNER scale ([4]; 0.2 part, 50 min): 3
- coloration, GARDNER scale ([4]; 0.2 part, 60 min): 5
- coloration, GARDNER scale ([4]; 0.2 part, 70 min): > 6
- coloration, GARDNER scale ([4]; 0.3 part, 0 min): 1
- coloration, GARDNER scale ([4]; 0.3 part, 10 min): 1
- coloration, GARDNER scale ([4]; 0.3 part, 20 min): 1
- coloration, GARDNER scale ([4]; 0.3 part, 30 min): 1
- coloration, GARDNER scale ([4]; 0.3 part, 40 min): 2
- coloration, GARDNER scale ([4]; 0.3 part, 50 min): > 2
- coloration, GARDNER scale ([4]; 0.3 part, 60 min): 8
- coloration, GARDNER scale ([4]; 0.3 part, 70 min): 8
- coloration, GARDNER scale ([4]; 0.4 part, 0 min): 1
- coloration, GARDNER scale ([4]; 0.4 part, 10 min): 1
- coloration, GARDNER scale ([4]; 0.4 part, 20 min): 1
- coloration, GARDNER scale ([4]; 0.4 part, 30 min): 1
- coloration, GARDNER scale ([4]; 0.4 part, 60 min): 4
- coloration, GARDNER scale ([4]; 0.4 part, 70 min): 8
- coloration, GARDNER scale ([4]; 0.5 part, 0 min): 1
- coloration, GARDNER scale ([4]; 0.5 part, 10 min): 1
- coloration, GARDNER scale ([4]; 0.5 part, 20 min): 1
- coloration, GARDNER scale ([4]; 0.5 part, 30 min): > 1
- coloration, GARDNER scale ([4]; 1.0 part, 0 min): 1
- coloration, GARDNER scale ([4]; 1.0 part, 10 min): 1
- coloration, GARDNER scale ([4]; 1.0 part, 20 min): 1
- coloration, GARDNER scale ([4]; 1.0 part, 30 min): 1
- coloration, GARDNER scale ([4]; 1.0 part, 50 min): 4
- coloration, GARDNER scale ([4]; 1.0 part, 60 min): 8
- time of burning (B) ([5]; 0.05 part): 40 '
- coloration, GARDNER scale ([5]; 0.05 part, 0 to 10 min): 1
- coloration, GARDNER scale ([5]; 0.05 part, 10 to 20 min): 1
- coloration, GARDNER scale ([5]; 0.05 part, 20 to 25 min): 1
- coloration, GARDNER scale ([5]; 0.05 part, 25 to 30 min): 1
- coloration, GARDNER scale ([5]; 0.05 part, 35 to 40 min): > 10
- time of burning (B) ([5]; 0.1 part): 38 '
- coloration, GARDNER scale ([5]; 0.1 part, 0 to 10 min): 1
- coloration, GARDNER scale ([5]; 0.1 part, 10 to 20 min): 1
- coloration, GARDNER scale ([5]; 0.1 part, 20 to 25 min): 1
- coloration, GARDNER scale ([5]; 0.1 part, 25 to 30 min): 1
- coloration, GARDNER scale ([5]; 0.1 part, 35 to 40 min): < 10
- time of burning (B) ([5]; 0.2 part): 39 '
- coloration, GARDNER scale ([5]; 0.2 part, 0 to 10 min): 1
- coloration, GARDNER scale ([5]; 0.2 part, 10 to 20 min): 1
- coloration, GARDNER scale ([5]; 0.2 part, 20 to 25 min): 1
- coloration, GARDNER scale ([5]; 0.2 part, 25 to 30 min): 1
- coloration, GARDNER scale ([5]; 0.2 part, 35 to 40 min): < 9
- time of burning (B) ([5]; 0.3 part): 39 '
- coloration, GARDNER scale ([5]; 0.3 part, 0 to 10 min): 1
- coloration, GARDNER scale ([5]; 0.3 part, 10 to 20 min): 1
- coloration, GARDNER scale ([5]; 0.3 part, 20 to 25 min): 1
- coloration, GARDNER scale ([5]; 0.3 part, 25 to 30 min): 1
- coloration, GARDNER scale ([5]; 0.3 part, 35 to 40 min): < 9
- time of burning (B) ([5]; 0.4 part): 38 '
- coloration, GARDNER scale ([5]; 0.4 part, 0 to 10 min): 1
- coloration, GARDNER scale ([5]; 0.4 part, 10 to 20 min): 1
- coloration, GARDNER scale ([5]; 0.4 part, 20 to 25 min): 1
- coloration, GARDNER scale ([5]; 0.4 part, 25 to 30 min): 1
- time of burning (B) ([5]; 0.5 part): 38 '
- coloration, GARDNER scale ([5]; 0.5 part, 0 to 10 min): 1
- coloration, GARDNER scale ([5]; 0.5 part, 10 to 20 min): 1
- coloration, GARDNER scale ([5]; 0.5 part, 20 to 25 min): 1
- coloration, GARDNER scale ([5]; 0.5 part, 25 to 30 min): 1
- time of burning (B) ([5]; 1.0 part): 37 '
- coloration, GARDNER scale ([5]; 1.0 part, 0 to 10 min): 1
- coloration, GARDNER scale ([5]; 1.0 part, 10 to 20 min): 1
- coloration, GARDNER scale ([5]; 1.0 part, 20 to 25 min): 1
- coloration, GARDNER scale ([5]; 1.0 part, 25 to 30 min): 1
- antioxidant power, Compound 1 vs Compound Z, in words ([5]; 210° C.): markedly superior to Compound Z

Structure (SMILES): CC1=C(C(=O)OCc2ccccc2)CC(C(=O)OCc2ccccc2)=C(C)N1 [Compound 21, 2,6-Dimethyl-3,5-dicarbobenzyloxy-1,4-dihydropyridine]
- coloration, GARDNER scale ([6]; 0 min): 1
- coloration, GARDNER scale ([6]; 6 min): 1
- coloration, GARDNER scale ([6]; 12 min): 1
- coloration, GARDNER scale ([6]; 18 min): 4
- coloration, GARDNER scale ([6]; 24 min): 6
- coloration, GARDNER scale ([6]; 27 min): 8
- coloration, GARDNER scale ([6]; 30 min): 11
- coloration, GARDNER scale ([6]; 33 min): 15
- coloration, GARDNER scale ([6]; 36 min): Burnt
- coloration, GARDNER scale ([7]; 0 min): 1
- coloration, GARDNER scale ([7]; 2 min): 1
- coloration, GARDNER scale ([7]; 4 min): 4
- coloration, GARDNER scale ([7]; 6 min): 6
- coloration, GARDNER scale ([7]; 8 min): 11
- coloration, GARDNER scale ([7]; 10 min): 13
- coloration, GARDNER scale ([7]; 12 min): 17
